From ChEMBL document CHEMBL1201862, “PubChem BioAssay data set” (2004)
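The compound was tested at five concentrations on cells cultured in 96-well plates, with a 48-hour exposure period. GI50 = concentration required for 50% inhibition of growth.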 The source made the active and inactive calls. No stated cut-off is given here; in the data, active = GI50 up to about 1.1 µM and inactive = higher.

How the values were obtained:
Experiment in all cases: DTP human tumour cell line panel, 48 h
NCI-H23 = system: NCI-H23
SW-620 = system: SW-620
Malme-3M = system: Malme-3M
MDA-MB-231 = system: MDA-MB-231
SF-295 = system: SF-295
NCI/ADR-RES = system: NCI/ADR-RES
HOP-62 = system: HOP-62
KM12 = system: KM12
ACHN = system: ACHN
COLO 205 = system: COLO 205
K562 = system: K562
T47D = system: T47D
TK-10 = system: TK-10
CAKI-1 = system: CAKI-1
SK-MEL-28 = system: SK-MEL-28
OVCAR-8 = system: OVCAR-8
LOX IMVI = system: LOX IMVI
NCI-H460 = system: NCI-H460
MDA-MB-435 = system: MDA-MB-435
UACC-257 = system: UACC-257
SNB-19 = system: SNB-19
HOP-92 = system: HOP-92
PC-3 = system: PC-3
HCT-15 = system: HCT-15
EKVX = system: EKVX
MCF7 = system: MCF7
NCI-H226 = system: NCI-H226
NCI-H522 = system: NCI-H522
HT-29 = system: HT-29
OVCAR-3 = system: OVCAR-3
A549 = system: A549
HCC 2998 = system: HCC 2998
OVCAR-4 = system: OVCAR-4
SR = system: SR
Hs-578T = system: Hs-578T
IGROV-1 = system: IGROV-1
SF-539 = system: SF-539
DU-145 = system: DU-145
M14 = system: M14
SF-268 = system: SF-268
SK-MEL-2 = system: SK-MEL-2
SN12C = system: SN12C
SK-OV-3 = system: SK-OV-3
OVCAR-5 = system: OVCAR-5
HCT-116 = system: HCT-116
MOLT-4 = system: MOLT-4
UACC-62 = system: UACC-62
MDA-N = system: MDA-N
CCRF-CEM = system: CCRF-CEM
786-0 = system: 786-0
SK-MEL-5 = system: SK-MEL-5
RXF 393 = system: RXF 393
U-251 = system: U-251
SNB-75 = system: SNB-75
A498 = system: A498
BT-549 = system: BT-549
UO-31 = system: UO-31
RPMI-8226 = system: RPMI-8226
HL-60 = system: HL-60

## COc1cc2c(cc1OC)C1Cc3ccccc3CN1CCC2 (stereo not drawn)
NCI-H23
  GI50: > 100 µM (inactive)
SW-620
  GI50: > 100 µM (inactive)
Malme-3M
  GI50: > 100 µM (inactive)
MDA-MB-231
  GI50: > 100 µM (inactive)
SF-295
  GI50: > 100 µM (inactive)
NCI/ADR-RES
  GI50: > 100 µM (inactive)
HOP-62
  GI50: > 100 µM (inactive)
KM12
  GI50: > 100 µM (inactive)
ACHN
  GI50: > 100 µM (inactive)
COLO 205
  GI50: > 100 µM (inactive)
K562
  GI50: 50 µM (inactive)
T47D
  GI50: 63.7 µM (inactive)
TK-10
  GI50: > 100 µM (inactive)
CAKI-1
  GI50: > 100 µM (inactive)
SK-MEL-28
  GI50: > 100 µM (inactive)
OVCAR-8
  GI50: > 100 µM (inactive)
LOX IMVI
  GI50: > 100 µM (inactive)
NCI-H460
  GI50: > 100 µM (inactive)
MDA-MB-435
  GI50: 47.6 µM (inactive)
UACC-257
  GI50: > 100 µM (inactive)
SNB-19
  GI50: > 100 µM (inactive)
HOP-92
  GI50: 92.9 µM (inactive)
PC-3
  GI50: > 100 µM (inactive)
HCT-15
  GI50: > 100 µM
EKVX
  GI50: > 100 µM (inactive)
MCF7
  GI50: > 100 µM (inactive)
NCI-H226
  GI50: 90.6 µM (inactive)
NCI-H522
  GI50: > 100 µM (inactive)
HT-29
  GI50: 66.8 µM (inactive)
OVCAR-3
  GI50: > 100 µM (inactive)
A549
  GI50: > 100 µM (inactive)
HCC 2998
  GI50: > 100 µM (inactive)
OVCAR-4
  GI50: 88.3 µM (inactive)
SR
  GI50: > 100 µM (inactive)
Hs-578T
  GI50: 93.1 µM (inactive)
IGROV-1
  GI50: > 100 µM (inactive)
SF-539
  GI50: > 100 µM (inactive)
DU-145
  GI50: > 100 µM (inactive)
M14
  GI50: 93.5 µM (inactive)
SF-268
  GI50: > 100 µM (inactive)
SK-MEL-2
  GI50: > 100 µM (inactive)
SN12C
  GI50: > 100 µM (inactive)
SK-OV-3
  GI50: > 100 µM (inactive)
OVCAR-5
  GI50: > 100 µM (inactive)
HCT-116
  GI50: 91.6 µM (inactive)
MOLT-4
  GI50: 67.6 µM (inactive)
UACC-62
  GI50: > 100 µM (inactive)
MDA-N
  GI50: 45 µM (inactive)
CCRF-CEM
  GI50: 46.9 µM (inactive)
786-0
  GI50: > 100 µM (inactive)
SK-MEL-5
  GI50: > 100 µM (inactive)
RXF 393
  GI50: > 100 µM (inactive)
U-251
  GI50: > 100 µM (inactive)
SNB-75
  GI50: 37.6 µM (inactive)
A498
  GI50: 97.7 µM (inactive)

## COc1ccc(OC)c2c3c([nH]c12)C(=O)Nc1nc(N)nc(N)c1C3
SW-620
  GI50: 2.07 µM (inactive)
Malme-3M
  GI50: 30.8 µM (inactive)
KM12
  GI50: 4.57 µM (inactive)
K562
  GI50: 0.634 µM (active)
T47D
  GI50: > 100 µM (inactive)
BT-549
  GI50: > 100 µM (inactive)
TK-10
  GI50: > 100 µM (inactive)
SK-MEL-28
  GI50: > 100 µM (inactive)
OVCAR-8
  GI50: 4.89 µM (inactive)
LOX IMVI
  GI50: > 100 µM (inactive)
MDA-MB-435
  GI50: 0.273 µM (active)
UACC-257
  GI50: > 100 µM (inactive)
HOP-92
  GI50: > 100 µM (inactive)
EKVX
  GI50: > 100 µM (inactive)
NCI-H226
  GI50: > 100 µM (inactive)
HT-29
  GI50: 1.12 µM (inactive)
OVCAR-3
  GI50: 3.14 µM (inactive)
HCC 2998
  GI50: > 100 µM (inactive)
OVCAR-4
  GI50: > 100 µM (inactive)
DU-145
  GI50: > 100 µM (inactive)
M14
  GI50: > 100 µM (inactive)
SK-MEL-2
  GI50: > 100 µM (inactive)
SK-OV-3
  GI50: > 100 µM (inactive)
OVCAR-5
  GI50: > 100 µM (inactive)
786-0
  GI50: > 100 µM (inactive)
RXF 393
  GI50: > 100 µM (inactive)

## CCOC(=O)c1ccc(-c2cc(C)[nH]n2)[nH]1
NCI-H23
  GI50: > 100 µM (inactive)
SW-620
  GI50: > 100 µM (inactive)
Malme-3M
  GI50: > 100 µM (inactive)
MDA-MB-231
  GI50: > 100 µM (inactive)
SF-295
  GI50: > 100 µM (inactive)
NCI/ADR-RES
  GI50: > 100 µM (inactive)
HOP-62
  GI50: > 100 µM (inactive)
KM12
  GI50: 62.5 µM (inactive)
ACHN
  GI50: > 100 µM (inactive)
UO-31
  GI50: > 100 µM (inactive)
COLO 205
  GI50: > 100 µM (inactive)
RPMI-8226
  GI50: > 100 µM (inactive)
T47D
  GI50: 85.5 µM (inactive)
BT-549
  GI50: > 100 µM (inactive)
TK-10
  GI50: > 100 µM (inactive)
CAKI-1
  GI50: > 100 µM (inactive)
SK-MEL-28
  GI50: > 100 µM (inactive)
OVCAR-8
  GI50: > 100 µM (inactive)
LOX IMVI
  GI50: > 100 µM (inactive)
NCI-H460
  GI50: > 100 µM (inactive)
MDA-MB-435
  GI50: > 100 µM (inactive)
UACC-257
  GI50: > 100 µM (inactive)
SNB-19
  GI50: > 100 µM (inactive)
HOP-92
  GI50: > 100 µM (inactive)
PC-3
  GI50: > 100 µM (inactive)
HCT-15
  GI50: > 100 µM
EKVX
  GI50: 54.1 µM (inactive)
NCI-H226
  GI50: > 100 µM (inactive)
NCI-H522
  GI50: > 100 µM (inactive)
HT-29
  GI50: > 100 µM (inactive)
OVCAR-3
  GI50: > 100 µM (inactive)
A549
  GI50: > 100 µM (inactive)
OVCAR-4
  GI50: > 100 µM (inactive)
SF-539
  GI50: > 100 µM (inactive)
DU-145
  GI50: > 100 µM (inactive)
M14
  GI50: > 100 µM (inactive)
SF-268
  GI50: > 100 µM (inactive)
SK-MEL-2
  GI50: > 100 µM (inactive)
SN12C
  GI50: > 100 µM (inactive)
SK-OV-3
  GI50: > 100 µM (inactive)
OVCAR-5
  GI50: > 100 µM (inactive)
HCT-116
  GI50: > 100 µM (inactive)
UACC-62
  GI50: > 100 µM (inactive)
HL-60
  GI50: 63.5 µM (inactive)
MDA-N
  GI50: > 100 µM (inactive)
CCRF-CEM
  GI50: > 100 µM (inactive)
786-0
  GI50: > 100 µM (inactive)
SK-MEL-5
  GI50: > 100 µM (inactive)
RXF 393
  GI50: > 100 µM (inactive)
U-251
  GI50: > 100 µM (inactive)
SNB-75
  GI50: > 100 µM (inactive)
A498
  GI50: 50.4 µM (inactive)
